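Growth conditions: 96-well plates. Treatment: test compound, 48 hours, 5 concentrations. Analysis: linear interpolation between bracketing concentrations; unreached endpoints set to highest concentration. GI50: concentration for 50% inhibition of growth.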 Calls of active or inactive are those of the source. No stated cut-off is given here; in the data, active = GI50 up to about 1.1 µM and inactive = higher.
How the values were obtained:
Experiment in all cases: NCI-60 cell line screen, 48 h
ACHN = system: ACHN
CAKI-1 = system: CAKI-1
CCRF-CEM = system: CCRF-CEM
EKVX = system: EKVX
HCT-116 = system: HCT-116
HT-29 = system: HT-29
LOX IMVI = system: LOX IMVI
MCF7 = system: MCF7
MDA-MB-231 = system: MDA-MB-231
MDA-N = system: MDA-N
NCI-H226 = system: NCI-H226
NCI-H23 = system: NCI-H23
NCI-H522 = system: NCI-H522
RPMI-8226 = system: RPMI-8226
SK-MEL-28 = system: SK-MEL-28
SN12C = system: SN12C
SW-620 = system: SW-620
U-251 = system: U-251
UACC-257 = system: UACC-257
UO-31 = system: UO-31

Row | SMILES | GI50 (ACHN) | GI50 (CAKI-1) | GI50 (CCRF-CEM) | GI50 (EKVX) | GI50 (HCT-116) | GI50 (HT-29) | GI50 (LOX IMVI) | GI50 (MCF7) | GI50 (MDA-MB-231) | GI50 (MDA-N) | GI50 (NCI-H226) | GI50 (NCI-H23) | GI50 (NCI-H522) | GI50 (RPMI-8226) | GI50 (SK-MEL-28) | GI50 (SN12C) | GI50 (SW-620) | GI50 (U-251) | GI50 (UACC-257) | GI50 (UO-31)
1 | Cc1cccc(C(=O)O)c1CC1NCCC2c3ccccc3NC12 (stereo not given) | > 100 µM (inactive) | > 100 µM (inactive) | > 100 µM (inactive) | > 100 µM (inactive) | > 100 µM (inactive) | > 100 µM (inactive) | > 100 µM (inactive) | > 100 µM (inactive) | > 100 µM (inactive) | > 100 µM (inactive) | > 100 µM (inactive) | > 100 µM (inactive) | > 100 µM (inactive) | > 100 µM (inactive) | > 100 µM (inactive) | > 100 µM (inactive) | > 100 µM (inactive) | > 100 µM (inactive) | > 100 µM (inactive) | > 100 µM (inactive)
2 | COCCCNC(=O)C1=C(C)NC(C)=C(C(=O)NCCCOC)C1 | > 100 µM (inactive) | > 100 µM (inactive) | > 100 µM (inactive) | 18.6 µM (inactive) | > 100 µM (inactive) | > 100 µM (inactive) | > 100 µM (inactive) | > 100 µM (inactive) | > 100 µM (inactive) | > 100 µM (inactive) | > 100 µM (inactive) | > 100 µM (inactive) | 9.23 µM (inactive) | > 100 µM (inactive) | > 100 µM (inactive) | > 100 µM (inactive) | > 100 µM (inactive) | > 100 µM (inactive) | > 100 µM (inactive) | 71.4 µM (inactive)
3 | CCCN1C(=O)CCC2=C1CCc1c2ccc(Cl)c1Cl | 24.3 µM (inactive) | 31.6 µM (inactive) | 39.9 µM (inactive) | 0.0305 µM (active) | 27.7 µM (inactive) | 34.8 µM (inactive) | 25.6 µM (inactive) | 42.1 µM (inactive) | 16.8 µM (inactive) | 46 µM (inactive) | 60.5 µM (inactive) | 29.4 µM (inactive) | 23.3 µM (inactive) | 28.8 µM (inactive) | 92 µM (inactive) | 28.2 µM (inactive) | 48.4 µM (inactive) | 22.9 µM (inactive) | 39.9 µM (inactive) | 53 µM (inactive)
4 | CC(C)(C)OC(=O)NCC(c1c[nH]c2ccc(Br)cc12)c1c[nH]c2ccc(Br)cc12 | 5.96 µM (inactive) | 11 µM (inactive) | 5.12 µM (inactive) | 4.52 µM (inactive) | 4.14 µM (inactive) | 3.34 µM (inactive) | 7.03 µM (inactive) | 5.41 µM (inactive) | 10.5 µM (inactive) | 8.63 µM (inactive) | 16.6 µM (inactive) | 4.33 µM (inactive) | 10.7 µM (inactive) | > 100 µM (inactive) | 16.3 µM (inactive) | 5.13 µM (inactive) | 6.64 µM (inactive) | 6.43 µM (inactive) | 13 µM (inactive) | 7.11 µM (inactive)
5 | C=CCOn1c(C=C)nc2ccc(C)cc21 | 20.1 µM (inactive) | 20.4 µM (inactive) | 2.44 µM (inactive) | 19.4 µM (inactive) | 12.1 µM (inactive) | 14.1 µM (inactive) | 12.8 µM (inactive) | 10.1 µM (inactive) | 16.7 µM (inactive) | 17.1 µM (inactive) | 20.2 µM (inactive) | 19.8 µM (inactive) | 15.5 µM (inactive) | 2.95 µM (inactive) | 18.7 µM (inactive) | 16.3 µM (inactive) | 15.4 µM (inactive) | 12.5 µM (inactive) | 13.7 µM (inactive) | 13.6 µM (inactive)
